Laboratory results: patent US5550110A, “Endothelin Antagonists II” (Warner-Lambert Company, priority 1994, dated 1996)
Peptide text beside a SMILES is read from it.

How the values were obtained:
[1] = system: endothelin receptor (ETA), rabbit renal artery vascular smooth muscle cells; test: Endothelin Receptor Binding Assay-A (ERBA-A), intact cell binding of [125I]-ET-1; conditions: [125I]-ET-1 25 pM
Protocol: The compounds of Formula I are valuable antagonists of endothelin. […] Thus, the compounds of Formula I were tested for their ability to inhibit [^125 I]-ET-1([^125 I]-Endothelin-1) binding in a receptor assay according to the following procedures: Endothelin Receptor Binding Assay-A (ERBA-A) Intact Cell Binding of [^125 I]-ET-1 The cells used were rabbit renal artery vascular smooth muscle cells grown in a 48-well dish (1 cm^2) (confluent cells). The assay buffer was a medium 199 containing Hanks salts and 25 mM Hepes buffer (Gibco 380-2350AJ), supplemented with penicillin/streptomycin/fungizone (0.5%) and bovine serum albumin (1 mg/mL). Amersham radioiodinated endothelin-1 [^125 I]-ET-1 was used at final concentration of 20,000 cpm/0.25 mL (25 pM). […] Second, remove the assay buffers, place the dish on ice, and add 150 μL of cold assay buffer described above to each well. Third, add […] each of cold [^125 I]-ET-1 and competing ligand to the solution (at the same time if possible). Next, place dish in a 37° C. water bath for about 2 hours and gently agitate the dish every 15 minutes. Discard the radioactive incubation mixture in the sink and wash wells 3 times with 1 mL of cold phosphate buffered saline. Last, add […] of 0.25 molar sodium hydroxide, agitate for 1 hour on a rotator, and then transfer the sodium hydroxide extract to gamma counting tubes and count the radioactivity.

[2] = target: T1, endothelin receptor (ETB), rat cerebellar membranes (Rattus norvegicus, UniProt P21451); test: Endothelin Receptor Binding Assay-B (ERBA-B), [125I]-ET-1 binding in rat cerebellar membranes; conditions: [125I]-ET-1 25 pM, read-out: ERRA-B IC50
T1 construct: thaw one aliquot of frozen rat cerebellar membranes (2 mg protein in 0.5 mL); from tissue; host or cells: rat cerebellum (membranes)
T1 sequence (P21451 27-442): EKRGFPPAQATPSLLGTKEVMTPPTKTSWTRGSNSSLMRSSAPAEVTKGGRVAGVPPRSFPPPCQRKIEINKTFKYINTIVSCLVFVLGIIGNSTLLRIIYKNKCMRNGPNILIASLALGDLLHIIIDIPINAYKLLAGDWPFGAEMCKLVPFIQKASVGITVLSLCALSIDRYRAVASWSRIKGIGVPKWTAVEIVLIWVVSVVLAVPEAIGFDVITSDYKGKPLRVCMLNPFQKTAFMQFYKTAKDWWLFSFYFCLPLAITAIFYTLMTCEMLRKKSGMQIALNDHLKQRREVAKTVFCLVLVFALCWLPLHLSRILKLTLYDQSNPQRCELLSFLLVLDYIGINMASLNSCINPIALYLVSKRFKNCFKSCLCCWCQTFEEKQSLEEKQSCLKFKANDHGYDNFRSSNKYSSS
Protocol: Endothelin Receptor Binding Assay-B (ERBA-B) [^125 I]-ET-1 Binding in Rat Cerebellar Membranes
The tissue is made up of 20 mM tris(hydroxymethyl)aminomethane hydrochloride (Trizma) buffer, 2 mM ethylenediaminetetra acetate, 100 μM phenylmethylsulfonyl fluoride.
First, thaw one aliquot of frozen rat cerebellar membranes (2 mg protein in 0.5 mL). Next, add 0.5 mL membrane aliquot to 4.5 mL cold tissue buffer, polytron at 7,500 revolutions per minute for 10 seconds. Finally, dilute tissue suspension 1/100 (0.1 mL suspension+9.9 mL tissue buffer), polytron again, and place ice.
Medium 199 with Hank's salts plus 25 mM Hepes+1 mg/mL bovine serum albumin.
Amersham [^125 I]-ET-1 (aliquots of 2×10^6 cpm per […] aliquot of [^125 I]-ET-1 with 5.2 mL dilution buffer, place on ice until use (final concentration will be 20,000 cpm per tube, or 25 pM).
Add 50 μL each of cold [^125 ]-ET-1 and competing ligand to tubes on ice. Mix in 150 μL of tissue to each tube, vortex briefly, then tap to force all liquids to bottom (total assay volume=250 μL). Then place the tubes in a 37° C. water bath for 2 hours.
Add 2.5 mL cold wash buffer (50 mM Trizma buffer) to each tube, filter, and then wash tube with additional 2.5 mL wash buffer and add to filter. Finally, wash filters with an additional 2.5 mL of cold wash buffer.
Count filters for radioactivity in gamma counter.

[3] = system: endothelin receptor, cultured rabbit renal artery vascular smooth muscle cells; test: Inhibition of ET-1 stimulated arachidonic acid release (AAR-A); type: cell-based; conditions: ET-1 0.3 nM
Protocol: (§1) In Vitro Inhibition of ET-1 Stimulated Arachidonic Acid Release in Cultured Rabbit Vascular Smooth Muscle Cells (AAR-A) or CHO Cells Expressing Rat Recombinant ETB Receptor (AAR-B) by Compounds of Formula I
(§2) Antagonist activity is measured by the ability of added compounds to reduce endothelin-stimulated arachidonic acid release in cultured vascular smooth muscle cells as arachidonic acid release (AAR). [^3 H] Arachidonic Acid Loading Media (LM) is DME/F12+0.5% fetal calf serum (FCS)×0.25 mCi/mL [^3 H] arachidonic acid (Amersham). Confluent monolayers of cultured rabbit renal artery vascular smooth muscle cells (AAR-A) or CHO cells expressing rat recombinant ETB receptor (AAR-B) were incubated in 0.5 mL of the LM over 18 hours, at 37° C., in 5% CO2. The LM was aspirated and the cells were washed once with the assay buffer (Hank's balanced salt solution [BSS]+10 mM HEPES+fatty acid-free BSA (1 mg/mL)), and incubated for 5 minutes with 1 mL of the prewarmed assay buffer. This solution was aspirated, followed by an additional 1 mL of prewarmed assay buffer, and further incubated for another 5 minutes. A final 5-minute incubation was carried out in a similar manner. The same procedure was repeated with the inclusion of 10 μL of the test compound (1 nM to 1 μM) and 10 μL ET-1 (0.3 nM) and the incubation was extended for 30 minutes. This solution was then collected, […] of scintillation cocktail was added, and the amount of [^3 H] arachidonic acid was determined in a liquid scintillation counter.

[4] = target: T2, rat recombinant ETB receptor (CHO cells) (Rattus norvegicus, UniProt P21451); test: Inhibition of ET-1 stimulated arachidonic acid release (AAR-B); type: cell-based; conditions: ET-1 0.3 nM
T2 construct: expressed in transfected cells; host or cells: CHO cells
T2 sequence (P21451 27-442): T1 sequence (P21451 27-442)
Protocol: as §1, §2

[5] = system: ETA (rabbit femoral artery); conditions: ET-1 as agonist, endothelium-denuded rings
Text: (§3) In Vitro Antagonism of ET-1 Stimulated Vasoconstriction in the Rabbit Femoral Artery (ETA) and Sarafotoxin 6c Stimulated Vasoconstriction in the Rabbit Pulmonary Artery (ETB)
(§4) Male New Zealand rabbits were killed by cervical dislocation and exsanguination. Femoral and pulmonary arteries were isolated, cleaned of connective tissue, and cut into 4-mm rings. The endothelium was denuded by placing the rings over hypodermic tubing (32 guage for femoral rings and 28 guage for pulmonary rings, Small Parts, Inc, Miami, Fla.) and gently rolling them. Denuded rings were mounted in 20 mL organ baths containing Krebs-bicarbonate buffer (composition in mM: NaCl, 118.2; NaHCO3, 24.8; KCl, 4.6; MgSO4 7.H2 O, 1.2; KH2 PO4, 1.2; CaCl2.2H2 O; Ca--Na2 EDTA, 0.026; dextrose, 10.0), that was maintained at 37° C. and gassed continuously with 5% CO2 in oxygen (pH 7.4). Resting tension was adjusted to 3.0 g for femoral and 4.0 g pulmonary arteries; the rings were left for 90 minutes to equilibrate.

[6] = target: ETB (rabbit pulmonary artery) (Oryctolagus cuniculus, UniProt Q9N0W7)
Text: as §3, §4

[7] = system: CaCO-2 cells (human colon adenocarcinoma cell line); type: in vitro ADME
Protocol: For experiments, the cells were counted, then diluted to 2.5×10^5 cells/mL for planting (400 μL per well) onto Snapwell culture membranes with 2.5 mL media in the lower chamber. Media in the […] was changed every 2 to 3 days. Cells used for this series of experiments were between passage 38 and 91. 2-[N-Morpholino]ethanesulfonic acid (MES)+25 mM glucose was used as incubation buffer for all the experiments and all incubation solutions were prepared to an osmotic pressure of 280 to 300 milliosmoles. The concentration of the endothelin antagonist being studied (for all experiments) was 100 μM and another endothelin antagonist with similar HPLC characteristics (retention time 2-3 minutes from the ET antagonist being studied, and similar chemical characteristics) was used at a concentration of 25 μM as an internal standard to compensate for any injection error. Prior to the start of the experiment, the transepithelial electrical resistance (TEER) was measured for each Snapwell (in media) at three points of the membrane. […] The membranes were washed by swirling in 0.9% normal saline and mounted in the pretreated diffusion chambers [0.1 mg/mL human serum albumin for 1 to 2 hours at 37° C. with O2 bubbling followed by air drying at 37° C. overnight, then with 4.5 to 5.0 mL dosing solution (MES+glucose+^14 C-PEG-4000 (5000 dpm/50 μL)+drug) for 5 minutes and 4.5 to 5.0 mL MES+glucose rinse just before the experiment.] The apical (donor) side was filled with 4.5 to 5.0 mL dosing solution, the basolateral (receiver) side with MES+glucose. Samples were removed from the donor and receiver compartments over the course of the experiment and analyzed for ^14 C-PEG 4000 (cell membrane integrity) and endothelin content.

[8] = target: T3, ETB (porcine pulmonary arteries) (Sus scrofa, UniProt P35463); conditions: isolated, endothelium-intact porcine pulmonary arteries; cited from earlier work
T3 construct: host or cells: isolated, endothelium-intact porcine pulmonary arteries
T3 sequence (P35463 27-443): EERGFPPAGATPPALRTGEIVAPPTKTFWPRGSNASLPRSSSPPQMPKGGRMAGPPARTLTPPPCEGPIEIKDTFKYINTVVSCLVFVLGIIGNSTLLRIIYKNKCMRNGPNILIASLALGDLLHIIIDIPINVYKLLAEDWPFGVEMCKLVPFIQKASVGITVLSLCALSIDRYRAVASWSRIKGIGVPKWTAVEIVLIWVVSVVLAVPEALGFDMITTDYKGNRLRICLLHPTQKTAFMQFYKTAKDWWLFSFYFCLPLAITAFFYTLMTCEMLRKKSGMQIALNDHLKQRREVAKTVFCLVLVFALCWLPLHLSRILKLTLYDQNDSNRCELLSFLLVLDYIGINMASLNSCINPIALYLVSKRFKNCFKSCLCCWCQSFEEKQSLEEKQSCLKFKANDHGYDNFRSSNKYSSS

Sequence of ETB (rabbit pulmonary artery) (Q9N0W7 27-441): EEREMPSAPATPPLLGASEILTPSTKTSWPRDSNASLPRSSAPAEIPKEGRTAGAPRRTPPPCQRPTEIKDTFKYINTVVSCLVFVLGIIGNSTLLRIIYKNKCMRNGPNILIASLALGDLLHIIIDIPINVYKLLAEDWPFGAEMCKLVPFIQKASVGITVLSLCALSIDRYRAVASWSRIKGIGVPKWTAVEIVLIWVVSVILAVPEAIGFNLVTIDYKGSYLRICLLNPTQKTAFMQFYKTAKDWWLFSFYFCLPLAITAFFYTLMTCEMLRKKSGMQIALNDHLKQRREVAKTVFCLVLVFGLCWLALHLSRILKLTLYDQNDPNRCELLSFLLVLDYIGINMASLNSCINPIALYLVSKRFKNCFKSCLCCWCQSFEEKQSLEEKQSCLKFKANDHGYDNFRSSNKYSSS

Compound | IC50 [1] [nM] | IC50 [2] [nM] | IC50 [3] [nM] | IC50 [4] [nM] | pA2 Femoral [5] | Kb [6] [nM] | absorption in the gut suggested by CaCO-2 values [7] | effect on vascular tone [8]
CC[C@H](C)[C@H](NC(=O)[C@H](CC(=O)O)NC(=O)[C@H](CC(C)C)NC(=O)[C@H](N)C1c2ccccc2CCc2ccccc21)C(=O)N[C@H](C(=O)N[C@@H](Cc1c[nH]c2ccccc12)C(=O)O)[C@@H](C)CC [Example 2, D-Bhg-Leu-Asp-Ile-Ile-Trp] (HELM PEPTIDE1{[N[C@@H](C(=O)[*:2])C1c2ccccc2CCc2ccccc21].L.D.I.I.W}$$$$V2.0) | 450 | 2100 | 100 | 9600 | 5.7 | – | – | –
CC[C@H](C)[C@H](NC(=O)[C@H](CC(=O)O)NC(=O)[C@H](CC(C)C)NC(=O)[C@H](NC(C)=O)C1c2ccccc2C=Cc2ccccc21)C(=O)N[C@H](C(=O)N[C@@H](Cc1c[nH]c2ccccc12)C(=O)O)[C@@H](C)CC [Example 6, Ac-D-Bheg-Leu-Asp-Ile-Ile-Trp] (HELM PEPTIDE1{[ac].[O=C([C@H](N[*:1])C1c2ccccc2C=Cc2ccccc21)[*:2]].L.D.I.I.W}$$$$V2.0) | 5 | 19 | 3 | 17 | 6.8 | 39.8 | – | –
CC[C@H](C)[C@H](NC(=O)[C@H](CC(=O)O)NC(=O)[C@H](CCCN)NC(=O)[C@H](NC(C)=O)C1c2ccccc2CCc2ccccc21)C(=O)N[C@H](C(=O)N[C@@H](Cc1c[nH]c2ccccc12)C(=O)O)[C@@H](C)CC [Example 7, Ac-D-Bhg-Orn-Asp-Ile-Ile-Trp] (HELM PEPTIDE1{[ac].[O=C([C@H](N[*:1])C1c2ccccc2CCc2ccccc21)[*:2]].[Orn].D.I.I.W}$$$$V2.0) | 22 | 1500 | 37 | – | 6.5 | – | – | –
CC[C@H](C)[C@H](NC(=O)[C@H](CC(=O)O)NC(=O)[C@H](CCC(=O)O)NC(=O)[C@H](NC(C)=O)C1c2ccccc2CCc2ccccc21)C(=O)N[C@H](C(=O)N[C@@H](Cc1c[nH]c2ccccc12)C(=O)O)[C@@H](C)CC [Example 8, Ac-D-Bhg-Glu-Asp-Ile-Ile-Trp] (HELM PEPTIDE1{[ac].[O=C([C@H](N[*:1])C1c2ccccc2CCc2ccccc21)[*:2]].E.D.I.I.W}$$$$V2.0) | 5.5 | 22 | 7 | 27 | 6.5 | 100 | – | –
CC[C@H](C)[C@H](NC(=O)[C@@H](NC(=O)[C@@H](CC(=O)O)NC(=O)[C@H](CC(C)C)NC(=O)[C@H](NC(C)=O)C1c2ccccc2CCc2ccccc21)[C@@H](C)CC)C(=O)N[C@@H](Cc1c[nH]c2ccccc12)C(=O)O [Example 16, Ac-D-Bhg-Leu-D-Asp-Ile-Ile-Trp] (HELM PEPTIDE1{[ac].[O=C([C@H](N[*:1])C1c2ccccc2CCc2ccccc21)[*:2]].L.[dD].I.I.W}$$$$V2.0) | 140 | 400 | – | – | – | – | 5-10% | –
ET[1,3,11,15-Ala]: linear ET analog, reported selective ETB agonist (ASASSLMDKEAVYFAHLDIIW; Endothelin-1; UniProt P05305 53-73, looked up, variant C1A C3A C11A C15A) | – | – | – | – | – | – | – | caused vasorelaxation
ET[6-21, 1,3,11,15-Ala] | – | – | – | – | – | – | – | caused vasorelaxation
ET[8-21,11,15-Ala] | – | – | – | – | – | – | – | caused vasorelaxation
N-Acetyl-ET[10-21,11,15-Ala] | – | – | – | – | – | – | – | caused vasorelaxation
